Common to all, as to type: functional
The subject of experiment [1] is Mycobacterium tuberculosis. Put plainly: Antimycobacterial activity against Mycobacterium tuberculosis H37Ra assessed as inhibition of bacterial growth at 100 ug/ml measured by microplate alamar blue assay. (In general: Resazurin is reduced to fluorescent resorufin, in cell work by metabolically active cells.)
Experiment [2] has as its system Mycobacterium tuberculosis. Put plainly: Antimycobacterial activity against Mycobacterium tuberculosis H37Ra assessed as inhibition of bacterial growth at 50 ug/ml measured by microplate alamar blue assay.
The subject of experiment [3] is Mycobacterium tuberculosis. In words: Antimycobacterial activity against Mycobacterium tuberculosis H37Ra assessed as inhibition of bacterial growth at 10 ug/ml measured by microplate alamar blue assay.
The subject of experiment [4] is Mycobacterium tuberculosis. Put plainly: Antimycobacterial activity against Mycobacterium tuberculosis H37Ra assessed as inhibition of bacterial growth measured by microplate alamar blue assay.
The subject of experiment [5] is Mycobacterium tuberculosis. Put plainly: Antimycobacterial activity against Mycobacterium tuberculosis H37Ra assessed as inhibition of bacterial growth at 1 to 5 ug/ml measured by microplate alamar blue assay. The following applies: dose 1-5 µg/ml; at 1 to 5 µg/mL.
The test system of experiment [6] is Mycobacterium tuberculosis. Put plainly: Antimycobacterial activity against Mycobacterium tuberculosis H37Ra assessed as inhibition of bacterial growth at 1 ug/ml measured by microplate alamar blue assay.
Experiment [7] relates to Mycobacterium tuberculosis. In words: Antimycobacterial activity against Mycobacterium tuberculosis H37Ra assessed as inhibition of bacterial growth at 25 ug/ml measured by microplate alamar blue assay.
Experiment [8] concerns Mycobacterium tuberculosis. In words: Antimycobacterial activity against Mycobacterium tuberculosis H37Ra assessed as inhibition of bacterial growth at 5 ug/ml measured by microplate alamar blue assay.

Molecules are shown by their SMILES. Converted amounts (≈) assume the structure as drawn.

The values that follow come from ChEMBL document CHEMBL4823287, “Design and synthesis of novel 5-alkynyl pyrimidine nucleosides derivatives: Influence of C-6-substituent on antituberculosis activity” (2021).

The term inhibition denotes the percentage by which the read-out fell short of the control. As usually defined, the MIC50 is an inhibitory concentration at the 50% level, which refers to growth in some studies and to a panel of isolates in others. On to `CCC#Cc1c(C)n([C@@H]2O[C@H](CO)[C@@H](O)[C@H]2O)c(=O)[nH]c1=O`, for which the inhibition at 100 µg/mL in experiment [1] was found to be 90%. For the same molecule, the inhibition at 50 µg/mL in experiment [2] stood at 50%. Besides, in experiment [3], the inhibition at 10 µg/mL was 10%. For the same molecule, in experiment [4], the MIC50 was 50 µg/mL (≈ 161 µM).

For the molecule `CCCCCCC#Cc1c(C)n([C@@H]2O[C@H](CO)[C@@H](O)[C@H]2O)c(=O)[nH]c1=O`, the inhibition at 100 µg/mL in experiment [1] came out at 90%. In addition, the inhibition at 50 µg/mL in experiment [2] was determined as 70%. In addition, the MIC50 in experiment [4] is under 50 µg/mL.

For the molecule `CC#Cc1c(C)n([C@@H]2O[C@H](CO)[C@@H](O)[C@H]2O)c(=O)[nH]c1=O`, the inhibition at 100 µg/mL in experiment [1] worked out at 90%. The inhibition at 50 µg/mL in experiment [2] was found to be 50%. In addition, the inhibition at 10 µg/mL in experiment [3] came to 10%. The MIC50 in experiment [4] stood at 50 µg/mL (≈ 169 µM).

As for `Cc1c(C#Cc2ccccc2)c(=O)[nH]c(=O)n1[C@@H]1O[C@H](CO)[C@@H](O)[C@H]1O`, the inhibition at 100 µg/mL in experiment [1] was found to be 90%. Besides, the inhibition at 50 µg/mL in experiment [2] was determined as 75%. Besides, the “inhibition (percent inhibition of bacterial growth)” value in experiment [5] is given as 50%. Further, the inhibition at 10 µg/mL in experiment [3] amounted to 75%. Also, in experiment [4], the MIC50 was 2.6 µg/mL (≈ 7.26 µM).

Consider `CO[C@H]1/C=C/O[C@@]2(C)Oc3c(C)c(O)c4c(O)c(c(/C=N/N5CCN(C)CC5)c(O)c4c3C2=O)NC(=O)/C(C)=C\C=C\[C@H](C)[C@H](O)[C@@H](C)[C@@H](O)[C@@H](C)[C@H](OC(C)=O)[C@@H]1C` [RIFAMPIN], for which the inhibition at 1 µg/mL in experiment [6] came out at 100%. The MIC50 in experiment [4] was found to be 0.7 µg/mL (≈ 0.851 µM).

For `Cc1c(C#CC2CCCCC2)c(=O)[nH]c(=O)n1[C@@H]1O[C@H](CO)[C@@H](O)[C@H]1O`, the inhibition at 50 µg/mL in experiment [2] stood at 100%. The “inhibition (percent inhibition of bacterial growth)” value in experiment [5] turned out to be 10%. For the same molecule, the inhibition at 25 µg/mL in experiment [7] was 60%. In experiment [4], the MIC50 was found to be 14.1 µg/mL (≈ 38.7 µM).

In the case of `NNC(=O)c1ccncc1` [ISONIAZID], the inhibition at 1 µg/mL in experiment [6] turned out to be 100%. For the same molecule, the MIC50 in experiment [4] was 0.8 µg/mL (≈ 5.83 µM).

For the molecule `N[C@@H]1CONC1=O` [CYCLOSERINE], the inhibition at 10 µg/mL in experiment [3] was 67%. The inhibition at 5 µg/mL in experiment [8] was 50%. Moreover, the MIC50 in experiment [4] amounted to 5.2 µg/mL (≈ 50.9 µM).

Regarding `Cc1c(C#CC(O)c2ccccc2)c(=O)[nH]c(=O)n1[C@@H]1O[C@H](CO)[C@@H](O)[C@H]1O` (stereo partly specified), in experiment [6], the inhibition at 1 µg/mL turned out to be 100%. In experiment [4], the MIC50 was 0.6 µg/mL (≈ 1.54 µM).

`CCCCC#Cc1c(C)n([C@@H]2O[C@H](CO)[C@@H](O)[C@H]2O)c(=O)[nH]c1=O`: the inhibition at 50 µg/mL in experiment [2] came to 100%. In addition, the “inhibition (percent inhibition of bacterial growth)” value in experiment [5] is 10%. The inhibition at 25 µg/mL in experiment [7] turned out to be 60%. Further, in experiment [4], the MIC50 worked out at 17.7 µg/mL (≈ 52.3 µM).

Consider `Cc1c(C#C[Si](C)(C)C)c(=O)[nH]c(=O)n1[C@@H]1O[C@H](CO)[C@@H](O)[C@H]1O`, for which the inhibition at 100 µg/mL in experiment [1] stood at 0%.

For the molecule `CCCC#Cc1c(C)n([C@@H]2O[C@H](CO)[C@@H](O)[C@H]2O)c(=O)[nH]c1=O`, in experiment [1], the inhibition at 100 µg/mL is 90%. For the same molecule, the inhibition at 50 µg/mL in experiment [2] was 60%. Besides, the inhibition at 10 µg/mL in experiment [3] is 0%. In experiment [4], the MIC50 was under 50 µg/mL.

For `Cc1c(C#CCC(C)C)c(=O)[nH]c(=O)n1[C@@H]1O[C@H](CO)[C@@H](O)[C@H]1O`, in experiment [2], the inhibition at 50 µg/mL was 100%. For the same molecule, in experiment [5], the “inhibition (percent inhibition of bacterial growth)” value was 10%. For the same molecule, in experiment [7], the inhibition at 25 µg/mL came out at 60%. In experiment [4], the MIC50 came out at 18.1 µg/mL (≈ 53.5 µM).

Turning to `Cc1c(C#CC2CC2)c(=O)[nH]c(=O)n1[C@@H]1O[C@H](CO)[C@@H](O)[C@H]1O`, the inhibition at 100 µg/mL in experiment [1] was 90%. The “inhibition (percent inhibition of bacterial growth)” value in experiment [5] is 50%. Besides, the inhibition at 10 µg/mL in experiment [3] worked out at 80%. The MIC50 in experiment [4] was 2.3 µg/mL (≈ 7.14 µM).
